pIC50: −log10 of the molar value. Read-outs that look alike come from different tables or passages of the source.
Tests used:
TSC-null cells [1] = assay: Antioxidant rescue of THZ1-induced cell death (Trypan blue); type: cell-based; conditions: THZ1 30 nM, NAC 2 mM or GSH-MEE 2 mM, 48 hr
From the text: (§1) FIGS. 8A-8G. Reduction of glutathione and increase in ROS in THZ1-treated TSC null cells. […] Arrow indicates glutathione. (n=3 samples) (FIG. 8B) Heat map showing the top 15 metabolites with greatest change in 621.101.TSC2− cells, with comparison to control and similarly-treated 621.101.TSC2-addback cells (n=3 samples). The scale is log 2 fold-change. […] Each data point represents the mean±SEM of three independent experiments (** p<0.01; *** p<0.001). […] Each data point represents the mean±SEM of three independent experiments (* p<0.05; ** p<0.01; *** p<0.001). […] Phase contrast images are at top. Cell death (%) is shown at bottom for these treatments as well as RAP (rapamycin 20 nM) and NAC (2 mM) for HCV.29.TSC1− and 621-101.TSC2− after 48 hours of treatment, measured by Trypan blue staining. Each data point represents the mean±SEM of three independent experiments (* p<0.05; ** p<0.01; *** p<0.001).
FIGS. 9A-9C. […] (n=3 samples,*** p<0.0005). […] Each data point represents the mean±SEM of three independent experiments (** p<0.01; *** p<0.001). (FIG. 9C) Cell death of MEF.TSC2− after 48 hours of treatment with indicated compounds was measured via Trypan blue staining assay. Each data point represents the mean±SEM of three independent experiments (* p<0.05; *** p<0.001). […]

TSC-null cells [2] = assay: ROS levels in TSC-null cells; type: cell-based; conditions: NAC 2 mM + THZ1 30 nM, 48 hr
From the text: as §1
As GSH is the major intracellular antioxidant […], reactive oxygen species (ROS) were next measured in these cells.
In addition, to examine whether glutathione depletion was the proximate cause of apoptosis in THZ1-treated TSC-null cells, cells were treated with GSH reduced ethyl ester (GSH-MEE), a membrane-permeable derivative of GSH.

[3] = system: kidney cystadenomas in Tsc2+/− A/J strain mice; conditions: THZ1 10 mg/kg IP twice a day 29 days; rapamycin 3 mg/kg 3 times per week
From the text: FIGS. 12A-12F. […] (FIG. 12A) Experimental plan. Tsc2+/− A/J strain mice develop kidney cystadenomas with 100% penetrance by 4 months of age with progressive tumor development. […] (FIG. 12B) Number of tumors per kidney in each treatment group (n=kidney number). ***p<0.001. (FIG. 12C) Tumor volume per kidney, with each data point corresponding to one kidney. (FIG. 12D) Renal cystadenoma histology in the treated mice. Representative tumor images are shown for each treatment cohort. Cystadenomas and tumors each are shown at 100×. […] (FIG. 12E) Ki-67 staining to assess cell proliferation in kidney sections from the treated mice. All images are at 100× magnification. Percentage of tumor cells with nuclear immunoreactivity of Ki-67 was scored from six random fields per section. ***p<0.001.
FIGS. 13A-13B. […]
Tsc2+/− A/J strain mice develop kidney cystadenomas by 4 months of age, and provide a native in vivo model that is […] human TSC patients, and is driven by spontaneous second hit events that lead to complete loss of Tsc2 expression and mTORC1 activation (Auricchio et al., 2012; Guo and Kwiatkowski, 2013; Woodrum et al., 2010). […] Rapamycin was dramatically effective in reducing tumor volume by about 99%, as assessed semi-quantitatively on H&E-stained sections (FIG. 12C), similar to what we have seen previously (Guo and Kwiatkowski, 2013). […]

[4] = system: HCV.29-TSC1− xenograft tumors; assay: HCV29-TSC1- xenograft model (Example 2); type: in vivo, mice; conditions: THZ1 10 mg/kg IP twice a day, rapamycin 3 mg/kg IP 3 days per week, or both
Protocol: FIGS. 14A-14D. […] Tumor size was measured every 3rd day using a digital caliper. […] This was quantified by counting four to six random fields per section. Scale bar=50 μm. **p<0.01, ***p<0.001. […] This was quantified by counting four to six random fields per section. Scale bar 50 μm. not shown (n=6) ***p<0.001. (FIG. 14D) Diagram showing glutathione synthetic pathway and ROS generation in TSC mutant cells. Top, TSC-deficient cells have hyperactive mTORC1, leading to increased ROS, NRF2 induction, and an increase in transcription of glutathione synthetic genes to yield more glutathione to buffer the increased ROS.
FIGS. 15A-15C. (FIG. 15A) Average body weight of TSC1-deficient HCV.29 xenograft mice in each treatment group. […] (n=4 tumors per group). ***p<0.001.
Tumor volumes were measured by calipers. […] Finally, in a cohort of xenograft mice, the treatments were discontinued and tumor growth was observed without intervention after the one month of treatment.

[5] = system: 621-101 cells (TSC2 null angiomyolipoma cell line); assay: 96-well plate proliferation assay (PicoGreen dsDNA); type: cell-based; conditions: 96 h; 621-101, 4 days; read-out: IC50, inhibition of proliferation
Protocol: (§2) FIG. 1. THZ1 selectively targets TSC-deficient cells. […] Cell viability was assessed after 4 days of treatment using Quant-it PicoGreen dsDNA. Data is represented as mean±SD.
(§3) Multiple studies were performed that support these hypotheses. Most studies to date have been performed on two pairs of cell lines: (i) HCV29, a TSC1 null human bladder cancer cell line, and a corresponding TSC1 addback derivative (TSC1-HCV29), and (ii) 621-101, a TSC2 null angiomyolipoma cell line, and the TSC2 addback derivative […].

[6] = system: HCV29 cells (TSC1 null bladder cancer cell line); assay: as above; type: cell-based; conditions: Homo sapiens, HCV-29, 96 h; HCV29, 4 days; read-out: IC50, inhibition of proliferation
Protocol: as §2, §3

TSC1-HCV29 cells [7] = assay: Cell cycle flow cytometry; type: cell-based, human; conditions: 30 nM, 24 h
HCV29 cells [8] = assay: Steady state metabolite analysis; type: cell-based, human; conditions: 30 nM, 48 h
TSC-addback cell lines = assay: 96 well plate growth assay, TSC-addback cell lines; type: cell-based; conditions: 120 h, 6 cell line pairs, 5 days
Protocol: (§4) FIGS. 4A-4F. […] Cell number was calculated by measurement of dsDNA content using PicoGreen after 5 days in 96-well plate assays. Each data point represents the mean of 4 measurements. SEM are indicated. […] Apoptotic cell death was quantified by propidium iodide (PI) staining and flow cytometry, and is shown as the percentage of cells that were PI positive. Each data point represents the mean±SEM of three independent experiments. * p<0.05; ** p<0.01; *** p<0.001. […] Beta-actin serves as a loading control.
(§5) FIGS. 5A-5D. […] Beta-actin serves as a loading control. […] Apoptotic cells were quantified by propidium iodide (PI) staining and flow cytometry. Each data point represents the mean±SEM of three independent experiments. * p<0.05; ** p<0.01; *** p<0.001. […] Beta-actin serves as a loading control.

TSC null cells = assay: NRF2, GCLC, GCLM, GSR protein expression; type: cell-based; conditions: 24 hours after THZ1 treatment
HCV29 cells [9] = assay: ROS levels; type: cell-based, human; conditions: THZ1 30 nM, rapamycin 20 nM or both
TSC-null cell lines = assay: 96 well plate growth assay, TSC-null cell lines; type: cell-based; conditions: 120 h, 6 cell line pairs, 5 days
Protocol: as §4, §5

HCV29 cells [10] = assay: RNA-Seq gene expression, HCV29 vs TSC1-HCV29; type: cell-based, human; conditions: 30 nM THZ1-treated HCV29 vs THZ1-treated TSC1-HCV29, 6 hours
From the text: However, the inventors focused on expression of all genes involved in the synthesis of reduced glutathione.

HCV29 cells [11] = assay: Cell cycle flow cytometry; type: cell-based, human; conditions: 30 nM, 24 h
HCV29 xenograft tumors = HCV29 xenograft tumors in Foxn1nu mice (Example 1); type: in vivo; conditions: 10 mg/kg IP twice daily, 30 days
From the text: FIG. 3. […] Treatment groups are indicated. […] Caliper measurements were used to calculate tumor volume.
HCV29 xenograft tumors were induced in immune-deficient Foxn1^nu mice by injection of 10^7 cells into each flank. […] Tumor size was monitored using calipers.

TSC1-HCV29 cells [12] = assay: Apoptosis by flow cytometry, propidium iodide and Annexin V; type: cell-based, human; conditions: 30 nM, 72 h
From the text: (§6) FIGS. 2A-2B. […] Apoptosis was monitored by flow cytometry using FITC-Annexin V. Each data point represents the mean±SEM of three independent experiments. *** p<0.001 (FIG. 2B) Immunoblot analyses of caspase-3 and actin.

HCV29 cells [13] = assay: as above; type: cell-based, human; conditions: 30 nM, 72 h
From the text: as §6

HCV29 cells [14] = conditions: 30 nM THZ1, 1 mM GSH
CDK7 [15] = target: T1, CDK7 (Homo sapiens, UniProt P50613); conditions: cited from earlier work
[16] = compared to THZ1; cited from earlier work
CDK7 [17] = target: T1, CDK7; conditions: read-out: cellular IC50; cited from earlier work
[18] = system: tumors in a TSC mouse model; assay: SY-1365 in a TSC mouse model; type: in vivo; conditions: tail vein injection 2×/week at 40 mg/kg for 4 weeks
Protocol: FIG. 16. Effect of SY-1365 on tumor volume in a TSC mouse model. SY-1365 was administered by tail vein injection 2×/week at 40 mg/kg for 4 weeks. Mice were then sacrificed and tumor assessment performed based on histology.

T1 sequence (P50613 whole entry): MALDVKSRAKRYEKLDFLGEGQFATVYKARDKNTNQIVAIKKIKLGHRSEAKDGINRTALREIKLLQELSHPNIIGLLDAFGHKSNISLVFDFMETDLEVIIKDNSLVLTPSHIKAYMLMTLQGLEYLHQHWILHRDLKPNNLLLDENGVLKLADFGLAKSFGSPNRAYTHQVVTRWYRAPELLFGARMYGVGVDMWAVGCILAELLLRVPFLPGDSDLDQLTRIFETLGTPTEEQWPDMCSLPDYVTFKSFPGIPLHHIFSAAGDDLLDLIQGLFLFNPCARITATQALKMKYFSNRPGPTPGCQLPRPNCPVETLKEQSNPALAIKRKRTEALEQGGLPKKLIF
T1 sequence (P51946 whole entry partner): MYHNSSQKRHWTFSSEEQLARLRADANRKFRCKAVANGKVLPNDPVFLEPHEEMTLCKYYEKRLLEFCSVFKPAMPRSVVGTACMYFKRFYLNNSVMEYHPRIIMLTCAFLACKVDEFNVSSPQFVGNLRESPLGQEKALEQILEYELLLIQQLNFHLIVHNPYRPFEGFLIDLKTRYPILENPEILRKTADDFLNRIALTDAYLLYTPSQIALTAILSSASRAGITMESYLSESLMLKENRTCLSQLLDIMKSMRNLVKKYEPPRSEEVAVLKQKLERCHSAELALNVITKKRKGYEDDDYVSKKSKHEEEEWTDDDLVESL
T1 sequence (P51948 whole entry partner): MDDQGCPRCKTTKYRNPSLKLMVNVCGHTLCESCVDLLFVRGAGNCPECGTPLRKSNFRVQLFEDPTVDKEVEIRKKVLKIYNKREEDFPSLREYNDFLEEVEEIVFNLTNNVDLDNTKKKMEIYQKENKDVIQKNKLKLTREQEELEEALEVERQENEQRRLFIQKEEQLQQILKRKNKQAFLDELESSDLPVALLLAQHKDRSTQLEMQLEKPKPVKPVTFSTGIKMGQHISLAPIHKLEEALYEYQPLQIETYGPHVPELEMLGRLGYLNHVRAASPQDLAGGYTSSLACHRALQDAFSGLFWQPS

In the case of `CCOC(=O)CNC(=O)[C@H](CS)NC(=O)CC[C@H](N)C(=O)O` [GSH-MEE, GSH reduced ethyl ester], the “cell death / viability of THZ1-treated TSC-null cells with co-treatment” value (TSC-null cells [1]) was “rescued the viability”.

In the case of `CC(=O)N[C@@H](CS)C(=O)O` [NAC, N-acetyl-cysteine], the “ROS levels in THZ1 treated TSC-null cells with antioxidant” value (TSC-null cells [2]) was “restored ROS levels to near baseline” and the “cell death / viability of THZ1-treated TSC-null cells with co-treatment” value (TSC-null cells [1]) was “significantly reduced the cell death”.

For `CO[C@H]1C[C@@H]2CC[C@@H](C)[C@@](O)(O2)C(=O)C(=O)N2CCCC[C@H]2C(=O)O[C@H]([C@H](C)C[C@@H]2CC[C@@H](O)[C@H](OC)C2)CC(=O)[C@H](C)/C=C(\C)[C@@H](O)[C@@H](OC)C(=O)[C@H](C)C[C@H](C)/C=C/C=C/C=C/1C` [rapamycin], the “reduction of tumor volume (semi-quantitative, H&E sections)” value [3] was “about 99%” and the “body weight and toxicity” value [4] was “No effect on body weight or other evidence of toxicity”.

With `CN(C)C/C=C/C(=O)Nc1ccc(C(=O)Nc2cccc(Nc3ncc(Cl)c(-c4c[nH]c5ccccc45)n3)c2)cc1` [THZ1] the pIC50 [5] was roughly 7.52, the pIC50 [6] was roughly 7.52 and the “cells arrested in G2/M-phase” value (TSC1-HCV29 cells [7]) was 5.5%. For the same compound, the “Glutathione disulfide (GSS) levels reduced” value (HCV29 cells [8]) was 65%, the “S-adenosyl-L-homocysteine reduction in levels” value (HCV29 cells [8]) was 87% and the “glutathione (GSH) reduction in levels” value (HCV29 cells [8]) was 78%. The pIC50 (TSC-addback cell lines; read-out: IC50 range, addback lines) was 6.18 to 6.72, the pIC50 (TSC-addback cell lines; read-out: median IC50, addback lines) was 6.32 and the “reduction in expression of each protein (NRF2, GCLC, GCLM, GSR)” value (TSC null cells) was greater than 90%. The ROS levels increase (HCV29 cells [9]) was 2.5 fold, the pIC50 (TSC-null cell lines; read-out: IC50 range, TSC-null cell lines) was 7.41 to 7.80 and the pIC50 (TSC-null cell lines; read-out: median IC50, TSC-null cell lines) was 7.58. For the same compound, the “GCLC mRNA levels reduction” value (HCV29 cells [10]) was 82%, the “GCLM mRNA levels reduction” value (HCV29 cells [10]) was 68% and the “GSR mRNA levels reduction” value (HCV29 cells [10]) was 86%. The “cells arrested in G2/M-phase” value (HCV29 cells [11]) was 21%, the “body weight and apparent toxicities” value (HCV29 xenograft tumors) was “did not affect body weight or cause other apparent toxicities” and the “reduction of tumor volume (semi-quantitative, H&E sections)” value [3] was “about 99%”. The “Annexin V+ cells” value (TSC1-HCV29 cells [12]) was 2%, the “Annexin V+ cells” value (HCV29 cells [13]) was 37% and the “body weight and toxicity” value [4] was “No effect on body weight or other evidence of toxicity”.

With `N[C@@H](CCC(=O)N[C@@H](CS)C(=O)NCC(=O)O)C(=O)O` [GSH, glutathione] the “THZ1-induced HCV29 cell death with GSH co-treatment” value (HCV29 cells [14]) was “markedly reduced”.

In the case of `CN(C)C/C=C/C(=O)Nc1ccc(C(=O)N[C@@]2(C)CCC[C@@H](Nc3ncc(Cl)c(-c4c[nH]c5ccccc45)n3)C2)nc1` [SY-1365], the “selectivity for CDK7 over other CDKs (e.g., CDK9)” value (CDK7 [15]) is given as “high selectivity for CDK7 over other CDKs”, the pIC50 (CDK7 [15]; read-out: enzymatic IC50) is given as roughly 7.66 and the pharmacokinetic properties [16] is given as “improved pharmacokinetic properties compared to THZ1”. The pIC50 (CDK7 [17]) was roughly 7.70 and the “reduction in tumor volume (semi-quantitative, histology)” value [18] was 99%.

Source: patent US20200197392A1, “COMPOSITIONS AND METHODS FOR TREATING TUBEROUS SCLEROSIS COMPLEX” (THE BRIGHAM & WOMEN'S HOSPITAL, INC., priority 2017, published 2020)
